{"source": "patent US20250319067A1", "about": "“Improved Pharmacokinetics of Tryptamine Prodrugs” (Reunion Neuroscience, Inc., priority 2023, published 2025)", "key": {"[1]": {"settings": "rat, oral Gymnopilus spectabilis (Chen et al.); cited from earlier work"}, "[2]": {"settings": "in vivo; cited from earlier work"}, "[3]": {"test": "Prodrug cleavage in human plasma", "format": "in vitro ADME", "settings": "human plasma (data not shown)", "protocol": "Mean values from 3 replicate assays are reported. See the Supplemental Methods for additional details.\nTriplicate aliquots (50 μL) of each spiked plasma solution were immediately added to 200 μL of ice-cold methanol/acetonitrile solution (50:50 v/v) containing the internal standards to generate time zero samples. Spiked plasma solutions were incubated at 37° C. in an orbital shaker set to 75 rpm, and 50-μL samples were taken in triplicate after 30 minutes and 1, 2, and 4 hours of incubation. Each sample was immediately added to 200 μL ofice-cold methanol/acetonitrile solution containing the internal standard(s) to terminate the reaction. Samples were mixed by vortex and then stored at −80° C. until analysis.\nCalibration standards were prepared in plasma for each species and analyzed in batches by LC-MS/MS. Sample batches consisted of 3 replicates of a system suitability standard (containing the analyte and internal standard), the appropriate calibration standards in ascending order including a blank sample without internal standard, a zero sample (with internal standard), and at least 6 nonzero standards and the assay samples, followed by the 3 replicates of the system suitability sample."}, "[4]": {"system": "male Wistar rats", "test": "Forced swim test (FST) in rats", "format": "in vivo, rat"}, "[5]": {"system": "rats", "test": "Behavioral safety pharmacology study in rats", "format": "in vivo", "settings": "rat", "protocol": "In a behavioral study in rats, single SC administration of 10, 25 or 50 mg/kg RE104 HCl induced significant acute, and reversible neuro-pharmacological effects; however, all observations were attributed to exaggerated pharmacologic effects at the serotonin receptor of the test article (i.e., SS). The incidence and duration of observations were dose related."}, "[6]": {"system": "male rats", "test": "Respiratory function study in male rats", "format": "in vivo, rat", "settings": "single SC 10, 25, and 50 mg/kg", "protocol": "In a respiratory function study in male rats, at single SC doses of 10, 25, and 50 mg/kg, RE104 HCl produced increases in respiration rate (8-28%) and decreases in tidal volume (28-30%) and minute volume (24-31%). All these changes were transient and returned to pre-dose values by the 6-hour post-dose reading. Based upon the small magnitude and the transient nature of these changes, the changes were not considered adverse."}, "[7]": {"system": "conscious telemetered beagle dogs", "test": "Cardiovascular study in conscious telemetered beagle dogs", "format": "in vivo", "settings": "dog"}, "[8]": {"target": "human ether-a-go-go-related gene (hERG) (Homo sapiens, UniProt Q12809)", "sequence (Q12809 whole entry)": "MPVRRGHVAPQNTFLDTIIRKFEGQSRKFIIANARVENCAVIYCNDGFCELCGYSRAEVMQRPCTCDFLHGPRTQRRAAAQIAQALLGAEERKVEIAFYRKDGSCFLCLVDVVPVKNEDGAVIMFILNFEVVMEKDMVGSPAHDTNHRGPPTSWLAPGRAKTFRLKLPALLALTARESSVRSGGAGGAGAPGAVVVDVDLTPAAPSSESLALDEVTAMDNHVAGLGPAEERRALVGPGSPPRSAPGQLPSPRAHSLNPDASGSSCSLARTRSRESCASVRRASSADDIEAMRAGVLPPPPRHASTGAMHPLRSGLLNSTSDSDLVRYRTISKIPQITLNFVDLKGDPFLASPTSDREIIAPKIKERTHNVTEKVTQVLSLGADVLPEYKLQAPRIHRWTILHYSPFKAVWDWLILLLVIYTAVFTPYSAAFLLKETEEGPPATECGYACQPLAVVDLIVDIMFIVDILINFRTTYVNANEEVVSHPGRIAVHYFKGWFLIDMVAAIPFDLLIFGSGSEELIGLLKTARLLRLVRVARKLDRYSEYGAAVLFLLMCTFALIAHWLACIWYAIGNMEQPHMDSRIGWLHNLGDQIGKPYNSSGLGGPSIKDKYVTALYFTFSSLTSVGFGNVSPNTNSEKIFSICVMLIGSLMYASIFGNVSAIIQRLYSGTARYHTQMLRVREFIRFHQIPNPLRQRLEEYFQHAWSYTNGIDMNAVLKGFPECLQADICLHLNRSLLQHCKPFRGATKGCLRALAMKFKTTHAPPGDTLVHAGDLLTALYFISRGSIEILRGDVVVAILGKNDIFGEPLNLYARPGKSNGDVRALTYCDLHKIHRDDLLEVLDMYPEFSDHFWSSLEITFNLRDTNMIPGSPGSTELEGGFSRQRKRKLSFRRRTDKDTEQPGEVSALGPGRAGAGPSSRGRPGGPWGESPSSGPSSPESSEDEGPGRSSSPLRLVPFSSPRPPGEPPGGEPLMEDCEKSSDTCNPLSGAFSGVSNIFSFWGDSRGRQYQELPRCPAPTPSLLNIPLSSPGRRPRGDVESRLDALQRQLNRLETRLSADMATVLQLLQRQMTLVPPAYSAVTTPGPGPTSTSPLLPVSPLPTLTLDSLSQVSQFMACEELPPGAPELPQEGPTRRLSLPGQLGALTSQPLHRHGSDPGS", "test": "hERG tail current assay", "format": "cell-based", "settings": "30 μM as zwitterion (highest concentration tested)"}, "[9]": {"test": "GLP 14-day extended single SC dose toxicity study in rats", "settings": "female, Sprague Dawley, rat, in vivo, subcutaneous", "protocol": "(§1) In a GLP 14-day extended single SC dose toxicity study in rats, doses of 0 (PBS), 10, 25 and 75 mg/kg were evaluated. Animals were necropsied on Study Day 2 and Day 14 (also referred to as Recovery Day 13) post-dosing.\n(§2) A non-GLP dose range study was performed in the dog in order to determine an MTD. Single SC doses of 7.5, 15 and 20 mg/kg were evaluated."}, "[10]": {"system": "rats", "test": "GLP 14-day extended single SC dose toxicity study in rats", "protocol": "as §1, §2"}, "[11]": {"system": "healthy females", "test": "Phase 1 FIH single ascending dose study: safety and tolerability (AEs)", "format": "in vivo, human", "protocol": "(§3) The study was a double-blind, randomized, placebo-controlled Phase 1 single ascending dose study in up to 6 cohorts in healthy females. Eligibility was assessed during a screening period of up to 28 days prior to enrollment. For the treatment period, subjects were admitted to the clinical research unit (CRU) one day prior to the dosing (Day −1). On Day 1, all subjects will received the assigned SC dose of RE104 HCl or placebo in a fed state (after domiciling overnight and consuming a planned evening meal on Day −1 and morning meal on Day 1 while at the CRU). Subjects were allowed to select snacks from a planned menu from 4 hours following dosing. Subjects were discharged from the clinic on Day 2 (−24 hours post-dose) after all required study procedures were completed and if deemed medically fit. Subjects returned to the clinic on Day 10 (±2 days) for a follow up visit.\nSix (6) cohorts were enrolled in the study. Six (6) single doses were tested in 6 cohorts (Cohort 1 to Cohort 6) of 8 healthy female subjects (6 active and 2 placebo), as indicated in FIG. 1 and Table 3.\nThe starting dose was 5.5 mg RE104 HCl. Sentinels were used in all cohorts. Within each cohort, 2 subjects were treated first: 1 subject received RE104 HCl and 1 subject received placebo.\nThe study was monitored by a safety review committee (SRC). […] Safety, tolerability, and available PK data were assessed by the SRC between each cohort before ascending to the next dose level (Table 3). After each cohort dosing was complete, the SRC met to discuss dose escalation. Escalation to the next higher dose level occurred only after evaluation of the safety and tolerability data up to and including at least 24 hours post-dose of all evaluable subjects in the previous dose cohort. Available PK results were requested for determination of dose escalation, as deemed necessary.\nDosing took place at a time point agreed to with the investigational pharmacy and acceptable to the investigator. RE104 HCl or placebo were administered as a SC injection in the upper arm. Subjects received RE104 HCl or placebo in a fed state. The time of administration of RE104 HCl or placebo was be recorded in the eCRF. The regimen used is outlined in Table 3.\nWithin each cohort, 2 sentinel subjects were treated first: 1 subject received RE104 HCl and 1 subject received placebo. […] All drug administration was be done under direct medical supervision. Study subjects were overseen during the potentially psychoactive study drug period by professionals trained to monitor psychedelic experiences."}, "[12]": {"system": "healthy females", "test": "Phase 1 FIH study: modified Drug Effect Questionnaire (DEQ-High)", "format": "in vivo, human", "protocol": "as §3\nThe Drug Effect Questionnaire (DEQ) Feel/High is widely used in studies of acute subjective response to a variety of substances, to assess two key aspects of subjective experience: (1) the strength of substance effects and (2) desirability of substance effects (Morean et al., 2013). The modified DEQ assesses the extent to which subjects (1) feel any substance effect(s) and (2) feel high. This version of the DEQ includes the following items: “Do you feel a drug effect right now?” (FEEL); “Are you high right now?” (HIGH). FIG. 2 sets out the modified DEQ that was used.\nThe modified DEQ was used as an 11-point numeric rating scale (0-10) administered by a qualified staff member. The subjects were asked to verbally respond to indicate how strongly they feel the drug effect and how high they feel on the scale of 0-10 after being administered the study drug (Kollltveit et al., 2020)."}, "[13]": {"system": "healthy females", "test": "Phase 1 FIH study: Mystical Experience Questionnaire (MEQ30)", "format": "in vivo, human", "settings": "33 mg", "protocol": "as §3\nThe Mystical Experience Questionnaire (MEQ30) is a validated questionnaire that assesses individual episodes of a mystical experience produced by classic hallucinogens (Barrett et al. 2015). The validated MEQ30 uses thirty questions across 4 areas of experience: (i) Mystical (including items concerning internal unity, external unity, noetic quality, and sacredness); (ii) Positive mood; (iii) Transcendence of time and space; and (iv) Ineffability. The subjects will be asked to rate each item of the MEQ30 on a 6-point scale. FIG. 3 sets out the revised MEQ30 that was used."}, "[14]": {"test": "Metabolite profiling in monkey plasma after SC RE104", "format": "in vivo, cynomolgus monkey", "settings": "pooled plasma 0 to 12 hours post dose, SC 0.5 mg/kg RE104", "source_text": "Blood samples were centrifuged to obtain plasma."}, "[15]": {"system": "humans", "settings": "humans; cited from earlier work"}}, "note": "“Also recorded” adds a separate entry of the source. Structures can show the parent of a compound that is named as a salt.", "data": [{"smiles": "CN(C)CCc1c[nH]c2cccc(O)c12", "note": "[psilocin]", "values": [{"measurement": "distribution half-life", "setting": "[1]", "result": 1.95, "unit": "h"}, {"measurement": "elimination half-life", "setting": "[1]", "result": 2.47, "unit": "h"}, {"measurement": "oral bioavailability in man", "setting": "[2]", "result": "approximately 53%"}]}, {"smiles": "CN(C)CCc1c[nH]c2cccc(OC(=O)CCCC(=O)O)c12.Cl", "note": "[RE109, psilocin-4-glutarate, reference compound]", "values": [{"measurement": "cleavage to psilocin", "setting": "[3]", "result": "rapid cleavage to psilocin"}, {"measurement": "climbing as share of escape behaviors", "setting": "[4]; rat FST, day 28", "result": 26, "unit": "%"}, {"measurement": "swimming as share of escape behaviors", "setting": "[4]; rat FST, day 28", "result": 74, "unit": "%"}, {"measurement": "mean swimming time relative to vehicle", "setting": "[4]; rat FST, single 1 mg/kg dose", "result": "significantly increased"}, {"measurement": "mean immobility time vs vehicle", "setting": "[4]; rat FST, single 1 mg/kg dose, day 14 and 28", "result": "significant decrease"}, {"measurement": "duration of distinctive serotonergic behaviors", "setting": "[4]; rat, dosing day, 1 mg/kg", "result": "approximately 3 hours"}]}, {"smiles": "CC(C)N(CCc1c[nH]c2cccc(OC(=O)CCCC(=O)O)c12)C(C)C", "note": "[RE104 HCl, 4-Glutaroyl-3-(2-diisopropylaminoethyl)-1H-indole hydrochloride]", "values": [{"measurement": "time of neuro-pharmacological effects", "setting": "[5]; single SC 10 mg/kg", "result": "effects were observed at 30 minutes (min) to 1 hour (h)"}, {"measurement": "time of neuro-pharmacological effects", "setting": "[5]; single SC 25 mg/kg", "result": "effects were observed to 6 h"}, {"measurement": "time of neuro-pharmacological effects", "setting": "[5]; single SC 50 mg/kg", "result": "effects were noted through 6 h post-dose but were resolved by 24 h"}, {"measurement": "decreases in minute volume", "setting": "[6]", "result": "24-31%"}, {"measurement": "decreases in tidal volume", "setting": "[6]", "result": "28-30%"}, {"measurement": "increases in respiration rate", "setting": "[6]", "result": "8-28%"}, {"measurement": "effects on cardiac rhythm, ECG parameters or body temperature", "setting": "[7]; SC 1, 3 or 8 mg/kg", "result": "No significant biologically relevant effects"}, {"measurement": "effect on heart rate and blood pressure", "setting": "[7]; SC 3 and 8 mg/kg", "result": "Transient increases in heart rate and blood pressure"}, {"measurement": "effect on heart rate and blood pressure", "setting": "[7]; single SC 1 mg/kg", "result": "small transient increase in heart rate but had no effect on blood pressure"}, {"measurement": "decrease in hERG current amplitude", "setting": "[8]", "result": "5.9 ± 1.6", "unit": "%"}, {"measurement": "NOAEL at 14 days", "setting": "[9]", "result": 10, "unit": "mg/kg"}, {"measurement": "Fold Lower than Scaled NOAEL Dose", "setting": "[10]; Cohort 1, 5.5 mg RE104 HCl", "result": 19}, {"measurement": "Fold Lower than Scaled NOAEL Dose", "setting": "[10]; Cohort 2, 11 mg RE104 HCl", "result": 9.7}, {"measurement": "Fold Lower than Scaled NOAEL Dose", "setting": "[10]; Cohort 3, 22 mg RE104 HCl", "result": 4.9}, {"measurement": "Fold Lower than Scaled NOAEL Dose", "setting": "[10]; Cohort 4, 33 mg RE104 HCl", "result": 3.2}, {"measurement": "MRSD", "setting": "[10]; from rat NOAEL, 10-fold safety margin", "result": 9.7, "unit": "mg"}, {"measurement": "injection site adverse reactions", "setting": "[11]; SC injection in the upper arm", "result": "No injection site adverse reactions were reported"}, {"measurement": "serious AEs", "setting": "[11]; doses up to and including 44 mg", "result": "no serious AEs"}, {"measurement": "blood pressure, vital sign, clinical laboratory, electrocardiogram findings", "setting": "[11]; doses up to and including 44 mg, hydrochloride", "result": "no evident blood pressure effects; also recorded: no clinically significant vital sign, clinical laboratory, or electrocardiogram findings"}, {"measurement": "reduction of psychoactive experience relative to historical evidence with psilocybin", "setting": "[12]; 33 mg", "result": 50, "unit": "%"}, {"measurement": "time of peak activity", "setting": "[12]; 33 mg SC", "result": "approx 1 h"}, {"measurement": "MEQ total score and domain scores", "setting": "[13]", "result": "≥ 60", "unit": "%"}]}, {"smiles": "CC(C)N(CCc1c[nH]c2cccc(OC3OC(C(=O)O)C(O)C(O)C3O)c12)C(C)C", "note": "(stereo not drawn) [glucuronidation of 4-OH-DiPT]", "values": [{"measurement": "share of the total peak area", "setting": "[14]", "result": 24.5, "unit": "%"}]}, {"smiles": "CN(C)CCc1c[nH]c2cccc(OP(=O)(O)O)c12", "note": "[psilocybin]", "values": [{"measurement": "duration of psychedelic state / effects", "setting": "[15]", "result": "6 to 8", "unit": "h"}]}]}
